Twelve compounds from US12247033B2, “Triazole-substituted imidazo[1,2-a]pyrimidines as cGAS inhibitors” (GlaxoSmithKline Intellectual Property Development Limited, priority 2022, dated 2025) can be followed below.

Where a name gives a salt, the structure may show the parent alone.

In this test the test system is CGAS. Put plainly: CGAS whole blood cytokine release assay (384-well, BacMam stimulation, IP-10 by cytometric bead array). It counts as cell-based. Conditions: Homo sapiens, 6 h; read-out: hWB pXC50 (converted). On the procedure: Blood collection: Blood was collected in a tube containing 10% Sodium Heparin (5 ml/45 ml blood final).
Protocol for CGAS Whole Blood Cytokine Release Assay: Compounds serial diluted at 1:3 were provided at 150 nL per well, in a 384 well polypropylene microplate (cat. 781280; Greiner Bio-One, Frickenhausen, Germany). 5 μL of PBS/20% Null BacMam was dispensed to all wells except for column 18 on a Multidrop Combi (Thermo Scientific, Waltham, MA). 5 uL of PBS was dispensed into column 18. The Bravo (Agilent, Santa Clara, CA) was used to transfer 45 uL of donor derived blood into the compound plates. The Bravo protocol mixed the blood and compound/PBS 5 times. The plates were incubated at 37° C., 5% CO2, for 6 hours. At the 6 hour mark the plates were removed and centrifuged for 10 minutes at 3000 RPM. 3 uL of supernatant was transferred from the plate to a 384 well NBS microplate (cat. 4513; Corning Life Sciences, Corning, NY). These plates were sealed with adhesive foil and stored in a −80 freezer until ready for analysis.
For cytokine detection, Human IP-10 BD cytometric bead array (CBA) beads (BD Biosciences, Franklin Lakes, NJ) were used. Capture bead solution was prepared by performing a 1:50 dilution of the IP-10 capture bead stock solution in BD diluent for serum/plasma (cat. 51-9003991 BD Biosciences, Franklin Lakes, NJ). 2 μL of this solution was added per well to the assay microplates which were then sealed with adhesive foil and incubated at room temperature for 2 h in the dark. Detection reagent was further prepared by performing a 1:50 dilution of the detection reagent stock solution. 2 μL of detection reagent was added per well and microplates were sealed with adhesive foil and incubated at room temperature in the dark for 1 h. After the 1 h incubation 3 uL of BD CBA wash buffer was added per well of the microplates. Data were acquired on an iQue Screener flow cytometer. The iQue used fluorescence detection to quantify the inhibition of IP-10 present in the sample wells. A sip time of 1 second per sample was used. The blue laser with excitation of 488 nm and emission filters 585/40 nm were used to capture the mean and median of IP-10 with the detector in logarithmic mode (FL2-H).
All data analysis was carried out in IDBS ActivityBase XE.

In the case of `O=C(COCc1cnc2nc(-c3nc(C(F)(F)F)n[nH]3)c(-c3c[nH]cn3)n2c1)N1CCCC1` [Example 147, 2-{[3-(1H-imidazol-4-yl)-2-[3-(trifluoromethyl)-1H-1,2,4-triazol-5-yl]imidazo[1,2-a]pyrimidin-6-yl]methoxy}-1-(pyrrolidin-1-yl)ethan-1-one], the IC50 was 5010 nM.

`CCOCc1cn2c(-c3cnc[nH]3)c(-c3nc(C(F)(F)F)n[nH]3)nc2nc1C(F)(F)F` [Example 115, 5-[6-(ethoxymethyl)-3-(1H-imidazol-5-yl)-7-(trifluoromethyl)imidazo[1,2-a]pyrimidin-2-yl]-3-(trifluoromethyl)-1H-1,2,4-triazole]: the IC50 is 1580 nM.

Turning to `O=C(O)CCOC(=O)OCn1cnc(-c2c(-c3nc(C(F)(F)F)n[nH]3)nc3ncccn23)c1` [Example 32, 3-({[(4-{2-[3-(trifluoromethyl)-1H-1,2,4-triazol-5-yl]imidazo[1,2-a]pyrimidin-3-yl}-1H-imidazol-1-yl)methoxy]carbonyl}oxy)propanoic acid, 0.5 trifluoroacetic acid salt], the IC50 is 3160 nM.

Take `Cc1ccn(CCOCc2cnc3nc(-c4nc(C(F)(F)F)n[nH]4)c(-c4c[nH]cn4)n3c2)n1` [Example 148, 5-[3-(1H-imidazol-4-yl)-6-{[2-(3-methyl-1H-pyrazol-1-yl)ethoxy]methyl}imidazo[1,2-a]pyrimidin-2-yl]-3-(trifluoromethyl)-1H-1,2,4-triazole]: the IC50 was 3980 nM.

Turning to `FC(F)Oc1n[nH]c(-c2nc3ncccn3c2-c2cnc[nH]2)n1` [Example 113, 3-(difluoromethoxy)-5-[3-(1H-imidazol-5-yl)imidazo[1,2-a]pyrimidin-2-yl]-1H-1,2,4-triazole], the IC50 was 1000 nM.

On to `CCCOCCOCc1cnc2nc(-c3nc(C(F)(F)F)n[nH]3)c(-c3c[nH]cn3)n2c1` [Example 153, 5-[3-(1H-imidazol-4-yl)-6-[(2-propoxyethoxy)methyl]imidazo[1,2-a]pyrimidin-2-yl]-3-(trifluoromethyl)-1H-1,2,4-triazole], for which the IC50 is 794 nM.

In the case of `FC(F)(F)c1n[nH]c(-c2nc3ncc(CC4CCCC4)cn3c2-c2cnc[nH]2)n1` [Example 17, 5-[6-(cyclopentylmethyl)-3-(1H-imidazol-5-yl)imidazo[1,2-a]pyrimidin-2-yl]-3-(trifluoromethyl)-1H-1,2,4-triazole, trifluoroacetic acid salt], the IC50 is 1260 nM.

As to `OCC1CN(Cc2ccn3c(-c4c[nH]cn4)c(-c4nc(C(F)(F)F)n[nH]4)nc3n2)C1` [Example 164, (1-{[3-(1H-imidazol-4-yl)-2-[3-(trifluoromethyl)-1H-1,2,4-triazol-5-yl]imidazo[1,2-a]pyrimidin-7-yl]methyl}azetidin-3-yl)methanol], the IC50 is 6310 nM.

For the compound `CCN1Cc2cn3c(-c4cnc[nH]4)c(-c4nc(C(F)(F)F)n[nH]4)nc3nc2C(F)(F)C1` [Example 108, 11-ethyl-13,13-difluoro-6-(1H-imidazol-5-yl)-5-[3-(trifluoromethyl)-1H-1,2,4-triazol-5-yl]-2,4,7,11-tetraazatricyclo[7.4.0.0^3,^7]trideca-1,3,5,8-tetraene], the IC50 is 631 nM.

As to `FC(F)(F)c1n[nH]c(-c2nc3ncc(COCCn4cc(Cl)cn4)cn3c2-c2c[nH]cn2)n1` [Example 151, 5-(6-{[2-(4-chloro-1H-pyrazol-1-yl)ethoxy]methyl}-3-(1H-imidazol-4-yl)imidazo[1,2-a]pyrimidin-2-yl)-3-(trifluoromethyl)-1H-1,2,4-triazole], the IC50 was 3980 nM.

Take `OCc1ccn2c(-c3cnc[nH]3)c(-c3nc(C(F)(F)F)n[nH]3)nc2n1` [Example 9, [3-(1H-imidazol-5-yl)-2-[3-(trifluoromethyl)-1H-1,2,4-triazol-5-yl]imidazo[1,2-a]pyrimidin-7-yl]methanol, 0.3 trifluoroacetic acid salt]: the IC50 is 100 nM.

As to `Fc1cnc2nc(-c3nc(Br)n[nH]3)c(-c3c[nH]cn3)n2c1` [Example 159, 3-bromo-5-[6-fluoro-3-(1H-imidazol-4-yl)imidazo[1,2-a]pyrimidin-2-yl]-1H-1,2,4-triazole], the IC50 was 200 nM.
